Consider 7 substances from PMC11271312 (Nature Communications, 2024).

Data set [1] in a line: 80% pooled plasma from dogs and 20% PBS (pH 7.4). The note with it: dog, 37 °C, up to […].
A short description of data set [2]: 80% pooled plasma from rats and 20% PBS (pH 7.4). The following applies: rat, 37 °C, up to […].
The nature of data set [3]: 80% pooled plasma from humans and 20% PBS (pH 7.4). The note with it: human, 37 °C, up to […].
Data set [4] in a line: 80% pooled plasma from minipigs and 20% PBS (pH 7.4). The following applies: minipig, 37 °C, up to […].
The nature of data set [5]: plasma from minipigs dosed intravenously with insulin icodec (2 nmol/kg). The note with it: Göttingen Minipigs, up to 10 days after dosing.

“A14E B16H B25H B29Nε-C20 diacid-LγGlu–2xAdo desB30 human insulin”: the fragment found result in data set [1] is “insulin B-chain with internal disulphide Cys 7–Cys 19, 96 h”; in data set [2] it was “insulin B-chain with internal disulphide Cys 7–Cys 19, 24 h”; in data set [3], “insulin B-chain with internal disulphide Cys 7–Cys 19, 24 h”; in data set [4], “insulin B-chain with internal disulphide Cys 7–Cys 19, 48 h”; in data set [5], “free insulin icodec B-chain (disulphide Cys 7–Cys 19)”.
As to A14E, B25H, desB30 | C18 diacid, the fragment found result in data set [2] is given as “B-chain (internal disulphide bond connecting Cys 7 with Cys 19), 48 h”.
Consider A14E, B25H, desB30 | C20 diacid, for which the fragment found entry in data set [2] was “B-chain (internal disulphide bond connecting Cys 7 with Cys 19), 24 h”; in data set [3], “B-chain (internal disulphide bond connecting Cys 7 with Cys 19), 96 h”; in data set [4], “B-chain (internal disulphide bond connecting Cys 7 with Cys 19), 168 h”.
For A14E, desB30 | C18 diacid, the fragment found entry in data set [2] was “B-chain (internal disulphide bond connecting Cys 7 with Cys 19), 24 h”.
Turning to B16H, desB30 | C18 diacid, the fragment found result in data set [1] is on record as “B-chain (internal disulphide bond connecting Cys 7 with Cys 19), 24 h”; in data set [2], “B-chain (internal disulphide bond connecting Cys 7 with Cys 19), 24 h”; in data set [3], “B-chain (internal disulphide bond connecting Cys 7 with Cys 19), 24 h”; in data set [4], “B-chain (internal disulphide bond connecting Cys 7 with Cys 19), 5 h”.
As for B25H, desB30 | C18 diacid, the fragment found result in data set [2] was “B-chain (internal disulphide bond connecting Cys 7 with Cys 19), 5 h”.
On the same count and under the same terms, with desB30 | C18 diacid the entry was “B-chain (internal disulphide bond connecting Cys 7 with Cys 19), 2.5 h”.
